Data published in patent US7732449B2, “Inhibitors of cathepsin S” (IRM LLC, priority 2003, dated 2010).
pKi: −log10 of the molar value. Where two headings read alike, the source gives them in different places.

Assays:
Type in all cases: biochemical
[1] = molecular target: Cathepsin S (Homo sapiens, UniProt P25774); assay: Cathepsin S inhibition, fluorogenic peptide substrate kinetic assay;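 also: cleavage rate of a coumarin-labelled peptide substrate (50 µM) read as fluorescence increase at Ex 380 nm and Em 450 nm, relative to inhibitor-free control reactions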
Cathepsin S, sequence (P25774 115-331, species assumed): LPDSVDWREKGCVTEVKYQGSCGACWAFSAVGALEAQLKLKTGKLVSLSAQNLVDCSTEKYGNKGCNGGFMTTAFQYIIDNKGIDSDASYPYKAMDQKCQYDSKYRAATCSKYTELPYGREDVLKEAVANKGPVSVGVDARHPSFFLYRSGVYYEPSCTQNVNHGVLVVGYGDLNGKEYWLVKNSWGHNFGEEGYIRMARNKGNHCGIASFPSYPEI

[2] = molecular target: T1, Cathepsin K (Homo sapiens, UniProt P43235); assay: Cathepsin K inhibition, fluorogenic peptide substrate kinetic assay (selectivity); conditions: ratio of cathepsin K inhibition constant to cathepsin S inhibition constant
T1 sequence (P43235 115-329): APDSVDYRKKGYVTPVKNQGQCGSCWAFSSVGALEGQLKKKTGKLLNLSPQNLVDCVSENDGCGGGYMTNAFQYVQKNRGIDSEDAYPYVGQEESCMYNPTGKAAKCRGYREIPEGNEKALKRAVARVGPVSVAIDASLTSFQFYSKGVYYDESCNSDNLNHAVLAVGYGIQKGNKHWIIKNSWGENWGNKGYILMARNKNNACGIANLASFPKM

[3] = molecular target: Cathepsin L (Homo sapiens, UniProt P07711); assay: Cathepsin L inhibition, fluorogenic peptide substrate kinetic assay (selectivity); conditions: ratio of cathepsin L inhibition constant to cathepsin S inhibition constant
Cathepsin L, sequence (P07711 114-333, species assumed): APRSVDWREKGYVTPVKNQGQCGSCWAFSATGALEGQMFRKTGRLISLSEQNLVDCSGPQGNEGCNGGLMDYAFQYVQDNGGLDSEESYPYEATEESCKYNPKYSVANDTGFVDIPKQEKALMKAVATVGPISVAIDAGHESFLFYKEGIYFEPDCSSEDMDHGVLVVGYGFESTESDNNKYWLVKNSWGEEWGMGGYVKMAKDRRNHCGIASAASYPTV

[4] = molecular target: Cathepsin B (Homo sapiens, UniProt P07858); assay: Cathepsin B inhibition, fluorogenic peptide substrate kinetic assay (selectivity); conditions: ratio of cathepsin B inhibition constant to cathepsin S inhibition constant;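 also: value is the cathepsin B inhibition constant divided by the cathepsin S one, each from kinetic fluorescence readings (ex 380 nm, em 450 nm) of a 10 µM coumarin peptide substrate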
[5] = Cathepsin S inhibition constant, pH5.5, 20 minutes preincubation at room temperature, read-out: Ki Cat. S

Row | Compound | pKi [1] | Selectivity for Cat. S over Cat. K [2] | Selectivity for Cat. S over Cat. L [3] | Selectivity for Cat. S over Cat. B [4] | pKi [1, 5]
1 | O=C(N[C@H](CNc1ccc(OC(F)(F)F)cc1)C1CC1)[C@@H](CC(=O)N1CCOCC1)c1ccc(C(F)(F)F)cc1 [Example 70, N-[1-(S)-Cyclopropyl-2-(4-trifluoromethoxy-phenylamino)-ethyl]-4-morpholin-4-yl-4-oxo-2-(S)-(4-trifluoromethyl-phenyl)-butyramide] | 6.00 to 7.00 | ++ (++, >100) | ++ (++, >100) | ++ (++, >100) | 
2 | COc1ccc(NC[C@H](C)NC(=O)[C@H](CC2CCCCC2)NC(=O)N2CCOCC2)cc1 [Example 72, (S,S)-Morpholine-4-carboxylic acid {2-cyclohexyl-1-[2-(4-methoxy-phenylamino)-1-methyl-ethylcarbamoyl]-ethyl}-amide] |  | ++ (++, >100) | + (+, >10) | ++ (++, >100) | > 7.00
3 | COc1ccc(NC[C@H](C)NC(=O)[C@H](CC2CCCC2)NC(=O)N2CCOCC2)cc1 [Example 73, Morpholine-4-carboxylic acid {2-cyclopentyl-1-(S)-[2-(4-methoxy-phenylamino)-1-(S)-methyl-ethylcarbamoyl]-ethyl}-amide] |  | + (+, >10) | + (+, >10) | ++ (++, >100) | > 7.00
4 | Cc1cc(NC[C@H](C)NC(=O)[C@H](CC2CCCCC2)NC(=O)N2CCOCC2)no1 [Example 77, Morpholine-4-carboxylic acid {2-cyclohexyl-1-(S)-[1-(S)-methyl-2-(5-methyl-isoxazol-3-ylamino)-ethylcarbamoyl]-ethyl}-amide] |  | + (+, >10) | + (+, >10) | ++ (++, >100) | 6.00 to 7.00
5 | C[C@@H](CN1CC(C)(C)c2cc(F)ccc21)NC(=O)[C@H](CC1CCCCC1)NC(=O)N1CCOCC1 [Example 80, (S,S)-Morpholine-4-carboxylic acid {2-cyclohexyl-1-[2-(5-fluoro-3,3-dimethyl-2,3-dihydro-indol-1-yl)-1-methyl-ethylcarbamoyl]-ethyl}-amide] |  | +++ (+++, >1000) | + (+, >10) | +++ (+++, >1000) | > 7.00
6 | CC1(C)CN(C[C@@H](NC(=O)[C@H](CC2CCCCC2)NC(=O)N2CCOCC2)C2CC2)c2ccc(F)cc21 [Example 81, Morpholine-4-carboxylic acid {2-cyclohexyl-1-(S)-[1-(S)-cyclopropyl-2-(5-fluoro-3,3-dimethyl-2,3-dihydro-indol-1-yl)-ethylcarbamoyl]-ethyl}-amide] |  | ++ (++, >100) | + (+, >10) | +++ (+++, >1000) | > 7.00
7 | CC(=O)NS(=O)(=O)c1ccc(NC[C@H](C)NC(=O)O[C@@H](CC2CCCCC2)C(=O)N2CCOCC2)cc1 [Example 89, [2-(4-Acetylsulfamoyl-phenylamino)-1-(S)-methyl-ethyl]-carbamic acid 1-(S)-cyclohexylmethyl-2-morpholin-4-yl-2-oxo-ethyl ester] |  | + (+, >10) | + (+, >10) | + (+, >10) | 5.00 to 6.00
